From publication PMC3116920, “Mechanisms for the Evolution of a Derived Function in the Ancestral Glucocorticoid Receptor” (PLoS Genetics, 2011)
Where a chain is given by its changes, count along the chain named. Where two headings read alike, the source gives them in different places.

How the values were obtained:
Leri GR = molecular target: T1, Leri GR (Leucoraja erinaceus, UniProt Q1KXY4); assay: cell-based; set-up: species or system CHO-K1; Gal4DBD-LBD UAS-driven luciferase reporter transactivation, Dual-Glo read-out
T1 construct: LBD fused to Gal4 DBD in pSG5; CHO-K1 cells with UAS-luciferase
T1 sequence (Q1KXY4 1-317): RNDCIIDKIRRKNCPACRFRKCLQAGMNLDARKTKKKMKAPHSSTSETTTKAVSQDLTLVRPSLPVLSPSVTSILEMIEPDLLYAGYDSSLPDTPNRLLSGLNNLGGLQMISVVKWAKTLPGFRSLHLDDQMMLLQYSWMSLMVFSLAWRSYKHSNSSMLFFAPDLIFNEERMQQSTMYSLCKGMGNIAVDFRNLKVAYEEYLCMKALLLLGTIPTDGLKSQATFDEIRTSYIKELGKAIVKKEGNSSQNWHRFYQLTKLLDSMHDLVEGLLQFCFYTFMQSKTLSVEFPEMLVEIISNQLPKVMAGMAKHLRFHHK
Method: LBDs were cloned as fusion proteins into a pSG5-Gal4DBD expression vector (gift of D. Furlow) and cotransfected using Lipofectamine and Plus Reagents (Invitrogen, Carlsbad, CA) with a UAS-driven luciferase reporter gene (pFRluc) into mammalian cell culture (CHO-K1), and grown in phenol red-free α-MEM plus 10% dextran-charcoal-stripped fetal bovine serum (Hyclone, Logan, UT). Cells were incubated with transfection reagents for four hours, after which they were treated with fresh medium; after recovery, cells were treated in triplicate with hormone or vehicle control, and incubated for one day. Reporter expression was measured using Dual-Glo (Promega, Madison, WI) and dose-response relationships analyzed using Prism4 (GraphPad, La Jolla, CA). Site-directed mutagenesis was carried out using QuickChange II (Stratagene, La Jolla, CA) and clones verified by DNA sequencing. Plausible alternate states were defined as non-maximum likelihood amino acid states with posterior probability >0.20; we reasoned that residues that are present in one or more extant high-sensitivity receptors are the most likely to increase receptor sensitivity, whereas those that are present only in low-sensitivity receptors are unlikely to confer high sensitivity. Each such alternate state was introduced singly into the ML AncGR1.1, and the experimental characterization was repeated. We used a luciferase reporter gene expression assay to characterize the sensitivity of each LBD to four major corticosteroids present in elasmobranchs – 11-deoxycorticosterone (DOC), corticosterone, 1alpha-hydroxycorticosterone, and 11-dehydrocorticosterone, [35]. […] All hormone-activated cartilaginous fish GRs were most sensitive to DOC and corticosterone. The receptors had EC50 values (the hormone concentration required to elicit half-maximal activation) for these steroids in the 10^−8 to 10^−6 M range (Figure 2, Table S1), typical of the EC50s of bony fish GRs for glucocorticoids but two to four orders of magnitude greater than AncCR or the MRs of bony vertebrates. […]

AncCR [1] = molecular target: T2, AncCR (synthetic construct, UniProt Z9R9E8A6B0, L4M/S74C, form not given); assay: luciferase reporter gene activation (Gal4DBD-LBD); assay type: cell-based; details: CHO-K1 cells, agonist, one day, triplicate; error is SE
T2 construct: LBD fused to Gal4 DBD in pSG5; CHO-K1 cells with UAS-luciferase
T2 sequence (Z9R9E8A6B0 4-249 L4M/S74C): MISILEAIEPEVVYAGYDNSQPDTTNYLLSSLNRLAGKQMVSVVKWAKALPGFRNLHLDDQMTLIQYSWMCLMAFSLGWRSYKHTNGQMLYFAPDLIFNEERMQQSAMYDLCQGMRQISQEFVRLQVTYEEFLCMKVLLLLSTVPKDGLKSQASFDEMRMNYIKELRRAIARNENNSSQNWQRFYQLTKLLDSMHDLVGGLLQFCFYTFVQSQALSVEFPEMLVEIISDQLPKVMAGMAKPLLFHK
Source text: (§1) luciferase reporter gene activation (Gal4DBD-LBD) on AncCR

AncCR [2] = molecular target: T3, AncCR (synthetic construct, UniProt Z9R9E8A6B0, S74C/A110S, form not given); assay: luciferase reporter gene activation (Gal4DBD-LBD); assay type: cell-based; details: CHO-K1 cells, agonist, one day, triplicate; error is SE
T3 construct: LBD fused to Gal4 DBD in pSG5; CHO-K1 cells with UAS-luciferase
T3 sequence (Z9R9E8A6B0 4-249 S74C/A110S): T2 sequence (Z9R9E8A6B0 4-249 L4M/S74C) with M1L, A107S
Source text: as §1

AncCR [3] = molecular target: T4, AncCR (synthetic construct, UniProt Z9R9E8A6B0, V46A/R119H, form not given); assay: luciferase reporter gene activation (Gal4DBD-LBD); assay type: cell-based; details: CHO-K1 cells, agonist, one day, triplicate; error is SE
T4 construct: LBD fused to Gal4 DBD in pSG5; CHO-K1 cells with UAS-luciferase
T4 sequence (Z9R9E8A6B0 4-249 V46A/R119H): T2 sequence (Z9R9E8A6B0 4-249 L4M/S74C) with M1L, V43A, C71S, R116H
Source text: as §1

AncCR [4] = molecular target: T5, AncCR (synthetic construct, UniProt Z9R9E8A6B0); assay: luciferase reporter gene activation (Gal4DBD-LBD); assay type: cell-based; details: CHO-K1 cells, agonist, one day, triplicate; error is SE
T5 construct: LBD fused to Gal4 DBD in pSG5; CHO-K1 cells with UAS-luciferase
T5 sequence (Z9R9E8A6B0 4-249): T2 sequence (Z9R9E8A6B0 4-249 L4M/S74C) with M1L, C71S
Source text: as §1

AncCR [5] = molecular target: T6, AncCR (synthetic construct, UniProt Z9R9E8A6B0, V46A/S74C/R119H, form not given); assay: luciferase reporter gene activation (Gal4DBD-LBD); assay type: cell-based; details: CHO-K1 cells, agonist, one day, triplicate; error is SE
T6 construct: LBD fused to Gal4 DBD in pSG5; CHO-K1 cells with UAS-luciferase
T6 sequence (Z9R9E8A6B0 4-249 V46A/S74C/R119H): T2 sequence (Z9R9E8A6B0 4-249 L4M/S74C) with M1L, V43A, R116H
Source text: as §1

AncCR [6] = molecular target: T7, AncCR (synthetic construct, UniProt Z9R9E8A6B0, S74C/Q116K, form not given); assay: luciferase reporter gene activation (Gal4DBD-LBD); assay type: cell-based; details: CHO-K1 cells, agonist, one day, triplicate; error is SE
T7 construct: LBD fused to Gal4 DBD in pSG5; CHO-K1 cells with UAS-luciferase
T7 sequence (Z9R9E8A6B0 4-249 S74C/Q116K): T2 sequence (Z9R9E8A6B0 4-249 L4M/S74C) with M1L, Q113K
Source text: as §1

AncCR [7] = molecular target: T8, AncCR (synthetic construct, UniProt Z9R9E8A6B0, S74C/Q214E, form not given); assay: luciferase reporter gene activation (Gal4DBD-LBD); assay type: cell-based; details: CHO-K1 cells, agonist, one day, triplicate; error is SE
T8 construct: LBD fused to Gal4 DBD in pSG5; CHO-K1 cells with UAS-luciferase
T8 sequence (Z9R9E8A6B0 4-249 S74C/Q214E): T2 sequence (Z9R9E8A6B0 4-249 L4M/S74C) with M1L, Q211E
Source text: as §1

AncCR [8] = molecular target: T9, AncCR (synthetic construct, UniProt Z9R9E8A6B0, S74C/R119H, form not given); assay: luciferase reporter gene activation (Gal4DBD-LBD); assay type: cell-based; details: CHO-K1 cells, agonist, one day, triplicate; error is SE
T9 construct: LBD fused to Gal4 DBD in pSG5; CHO-K1 cells with UAS-luciferase
T9 sequence (Z9R9E8A6B0 4-249 S74C/R119H): T2 sequence (Z9R9E8A6B0 4-249 L4M/S74C) with M1L, R116H
Source text: as §1

AncCR [9] = molecular target: T10, AncCR (synthetic construct, UniProt Z9R9E8A6B0, V46A/S74C, form not given); assay: luciferase reporter gene activation (Gal4DBD-LBD); assay type: cell-based; details: CHO-K1 cells, agonist, one day, triplicate; error is SE
T10 construct: LBD fused to Gal4 DBD in pSG5; CHO-K1 cells with UAS-luciferase
T10 sequence (Z9R9E8A6B0 4-249 V46A/S74C): T2 sequence (Z9R9E8A6B0 4-249 L4M/S74C) with M1L, V43A
Source text: as §1

AncCR [10] = molecular target: T11, AncCR (synthetic construct, UniProt Z9R9E8A6B0, S74C/K86Q, form not given); assay: luciferase reporter gene activation (Gal4DBD-LBD); assay type: cell-based; details: CHO-K1 cells, agonist, one day, triplicate; error is SE
T11 construct: LBD fused to Gal4 DBD in pSG5; CHO-K1 cells with UAS-luciferase
T11 sequence (Z9R9E8A6B0 4-249 S74C/K86Q): T2 sequence (Z9R9E8A6B0 4-249 L4M/S74C) with M1L, K83Q
Source text: as §1

AncCR [11] = molecular target: T12, AncCR (synthetic construct, UniProt Z9R9E8A6B0, S74C, form not given); assay: luciferase reporter gene activation (Gal4DBD-LBD); assay type: cell-based; details: CHO-K1 cells, agonist, one day, triplicate; error is SE
T12 construct: LBD fused to Gal4 DBD in pSG5; CHO-K1 cells with UAS-luciferase
T12 sequence (Z9R9E8A6B0 4-249 S74C): T2 sequence (Z9R9E8A6B0 4-249 L4M/S74C) with M1L
Source text: as §1

C[C@]12C[C@H](O)[C@H]3[C@@H](CCC4=CC(=O)C[C@H](O)[C@@]43C)[C@@H]1CC[C@@H]2C(=O)CO [1α-B, 1α-hydroxycorticosterone]
EC50 (Leri GR; read-out: 1α-B log EC50 (converted)): 2000 nM

C[C@]12C[C@H](O)[C@H]3[C@@H](CCC4=CC(=O)CC[C@@]43C)[C@@H]1CC[C@@H]2C(=O)CO [B, corticosterone]
EC50 (Leri GR; read-out: B log EC50 (converted)): 28.3 nM

C[C@]12CC[C@H]3[C@@H](CCC4=CC(=O)CC[C@@]43C)[C@@H]1CC[C@@H]2C(=O)CO [DOC, 11-deoxycorticosterone]
log EC50 ^b (AncCR [1]): −10.250 ± 0.30 log10 M | log EC50 ^b (AncCR [2]): −10.350 ± 0.24 log10 M | log EC50 ^b (AncCR [3]): −8.387 ± 0.54 log10 M | log EC50 ^b (AncCR [4]): −10.690 ± 0.64 log10 M | log EC50 ^b (AncCR [5]): −6.418 ± 0.06 log10 M | log EC50 ^b (AncCR [6]): −9.773 ± 0.43 log10 M | log EC50 ^b (AncCR [7]): −10.170 ± 0.43 log10 M | log EC50 ^b (AncCR [8]): −8.812 ± 0.28 log10 M | log EC50 ^b (AncCR [9]): −8.443 ± 0.15 log10 M | log EC50 ^b (AncCR [10]): −10.330 ± 0.41 log10 M | log EC50 ^b (AncCR [11]): −10.870 ± 0.34 log10 M | EC50 (Leri GR; read-out: DOC log EC50 (converted)): 305 nM
